Data taken from patent US20210138077A1, “SELECTIVE DRUG RELEASE FROM INTERNALIZED CONJUGATES OF BIOLOGICALLY ACTIVE COMPOUNDS” (Seagen Inc., priority 2019, published 2021).
Non-standard residues stand in square brackets, D forms with d. No end group written: not given here. Met(O) = CS(=O)CC[C@H](N)C(=O)O; Cit = NC(=O)NCCC[C@H](N)C(=O)O

What follows are substances tested on normal human bone marrow homogenate (assay: Fluorescence assay of tripeptide library: proteolysis by normal tissue homogenate). Conditions: Table 1A, normalized fluorescence fold change at final time point (275-315 min), pH 4.5, 37° C.
Format: biochemical
Experimental: (§1) Fluorescence assay. To a 384 well plate was added a mixture of tumor or normal tissue homogenate and citrate buffer (100 mM, pH 4.5; 9 μL) followed by a fluorescently labelled library compound (1 μL; dissolved in 50% MeCN). The reaction was incubated at 37° C. and fluorescence (330 nm excitation, 450 nm emission) was detected several times over a 6-hr. period. The fluorescence fold change was determined by dividing the fluorescence value at each time point with the background fluorescence when no homogenate was added.
(§2) Tissue Homogenization. Normal tissue or tumor tissue from mouse xenografts were suspended in buffer (50 mM Tris, 150 mM KCl, pH 7.0) and added to a tube containing Matrix D lysing beads (mpbio). The tissue was homogenized with a Precellys™ 24 homogenizer. The homogenized sample was centrifuged at 1000×g for 10 min and the resulting supernatant was collected then frozen at −80° C. until further use.
(§3) The library members were synthesized on cellulose support according to the method by Hilpert, K. et al. in “Peptide arrays on cellulose support: SPOT synthesis, a time and cost efficient method for synthesis of large numbers of peptides in a parallel and addressable fashion”, Nature Protocols (2007) 2(6): 1333-1349, the method of which is specifically incorporated by reference herein, with one important modification. That modification uses laser-perforated cellulose paper so that synthesis of each library member occurs with a clearly defined circular disc. After SPOT synthesis, each circular area, which separately contains a discrete library member, is punched out by a multichannel pipette into individual wells of a microtiter plate. The microtiter plate is then placed into an ammonia chamber to cleave the tripeptide containing model compounds from the cellulose discs. The cleaved compounds were then transferred to a fresh microtiter plate after solubilizing each into 50% aqueous acetonitrile. The contents of the wells were then assessed for susceptibility to proteolysis by tumor tissue homogenate in comparison to a comparator peptide-based drug linker compound having the dipeptide val-cit, which is replaced by the -[P1]-[P2]-[P3]-tripeptides in the library of drug linker compounds, by measuring the fluorescence found in each of the wells of the library after contacting with tumor or normal tissue homogenate and dividing it by the fluorescence found for tumor or normal tissue homogenate cleavage of the comparator dipeptide-containing drug linker compound.
The normalized normal tissue fluorescence values are from proteolysis by normal human bone marrow. Human bone marrow was chosen as the normal tissue because it is the site of an adverse event (neutropenia) that has been associated with administering to a human subject in need thereof an effective amount of an Antibody Drug Conjugate having drug linker moieties derived from the Drug Linker compound m-val-cit-PABC-MMAE.
(§4) A normalized fluorescence value is calculated by dividing the fluorescence value at the final time point (275-315 min) from addition of a tissue homogenate by the fluorescence value when no tissue homogenate was added. That value was then normalized for each peptide in each homogenate by dividing it by the average value for that homogenate. […] The normalized tumor tissue values of Table 1 were then determined by averaging the normalized fluorescence value for each peptide across all 4 cancer homogenates that were tested. Those tumor homogenates were derived from xenograft models for HPAF-II (Nude mouse), Ramos (SCID mouse), SK-Mel-5 (Nude mouse) and SU-DHL-4 (SCID mouse). The normalized normal tissue values of Table 1 were similarly calculated using homogenized bone marrow. The Tumor/Normal ratios of Table 1A were determined by dividing the normalized tumor tissue values by the normalized normal tissue values.

Substance | Normalized Normal Tissue
Ala-Cit-Cit | 1.02
Cit-Cit-Cit | 1.12
Cit-Glu-Cit | 1.21
DLeu-Leu-Cit | 1.37
Glu-Ala-Glu | 1.05
Glu-Glu-[Cit] | 1.22
Pro-Ala-Glu | 0.78
Pro-Ala-[Cit] | 1.07
Pro-Cit-Cit | 0.95
Pro-Glu-Glu | 0.73
Pro-Glu-Lys | 0.72
Pro-Glu-[Cit] | 0.85
Pro-Lys-Glu | 0.72
Pro-[Cit]-Glu | 0.85
Thr-Cit-Cit | 0.89
[Cit]-Glu-Glu | 0.97
[dL]-Leu-Glu | 1.12
[dL]-Leu-Lys | 0.87
[dL]-Leu-[Met(O)] | 0.66
[dL]-Phe-Glu | 0.89

Same assay, conditions: Table 1B, normalized fluorescence

Substance | Normalized Normal
Lys-Glu-[Met(O)] | 0.70
Pro-Glu-Ala | 0.70
[dL]-Ala-Lys | 0.68
[dL]-Glu-Lys | 0.62
[dL]-Leu-[Met(O)] | 0.66
[dL]-[Cit]-Glu | 0.64

Each substance was assayed on tumor tissue homogenates derived from four mouse xenograft models (HPAF-II, Ramos, SK-Mel-5, SU-DHL-4) (assay: Fluorescence assay of tripeptide library: proteolysis by tumor tissue homogenate). Conditions: Table 1A; normalized fluorescence, averaged across 4 tumor homogenates (HPAF-II, Ramos, SK-Mel-5, SU-DHL-4).
Format: biochemical
Experimental: as §1, §2, §3
The normalized fluorescence value for tumor homogenate proteolysis is an averaged value for tumor tissue homogenates derived from four mouse xenograft models. Calculation of those normalized values are described following Table 1A.
as §4

Substance | Normalized Tumor Tissue
Ala-Cit-Cit | 2.58
Cit-Cit-Cit | 2.82
Cit-Glu-Cit | 3.16
DLeu-Leu-Cit | 3.70
Glu-Ala-Glu | 2.66
Glu-Glu-[Cit] | 3.14
Pro-Ala-Glu | 2.48
Pro-Ala-[Cit] | 3.03
Pro-Cit-Cit | 2.54
Pro-Glu-Glu | 1.87
Pro-Glu-Lys | 1.85
Pro-Glu-[Cit] | 2.35
Pro-Lys-Glu | 1.88
Pro-[Cit]-Glu | 2.27
Thr-Cit-Cit | 2.26
[Cit]-Glu-Glu | 2.44
[dL]-Leu-Glu | 3.45
[dL]-Leu-Lys | 2.20
[dL]-Leu-[Met(O)] | 1.70
[dL]-Phe-Glu | 2.27

Same assay, conditions: Table 1A; normalized tumor tissue value divided by normalized normal tissue value

Substance | Tumor/Normal
Ala-Cit-Cit | 2.53
Cit-Cit-Cit | 2.52
Cit-Glu-Cit | 2.61
DLeu-Leu-Cit | 2.70
Glu-Ala-Glu | 2.53
Glu-Glu-[Cit] | 2.57
Pro-Ala-Glu | 3.16
Pro-Ala-[Cit] | 2.84
Pro-Cit-Cit | 2.67
Pro-Glu-Glu | 2.58
Pro-Glu-Lys | 2.57
Pro-Glu-[Cit] | 2.77
Pro-Lys-Glu | 2.59
Pro-[Cit]-Glu | 2.68
Thr-Cit-Cit | 2.53
[Cit]-Glu-Glu | 2.53
[dL]-Leu-Glu | 3.09
[dL]-Leu-Lys | 2.54
[dL]-Leu-[Met(O)] | 2.58
[dL]-Phe-Glu | 2.55

Same assay, conditions: Table 1B; normalized fluorescence, averaged across 4 tumor homogenates

Substance | Normalized Tumor
Lys-Glu-[Met(O)] | 1.16
Pro-Glu-Ala | 1.28
[dL]-Ala-Lys | 1.16
[dL]-Glu-Lys | 1.06
[dL]-Leu-[Met(O)] | 1.70
[dL]-[Cit]-Glu | 1.07

Same assay, conditions: Table 1B; normalized tumor value divided by normalized normal value

Substance | Tumor/Normal
Lys-Glu-[Met(O)] | 1.66
Pro-Glu-Ala | 1.84
[dL]-Ala-Lys | 1.70
[dL]-Glu-Lys | 1.71
[dL]-Leu-[Met(O)] | 2.58
[dL]-[Cit]-Glu | 1.67
